Experimental data as given in patent publication EP4650362A1, “NEUROPROTECTIVE PSD-95 POLYPEPTIDE INHIBITOR AND USE THEREOF” (Beijing Tuo Jie Biopharmaceutical Co. Ltd., priority 2023, dated 2024).
Read-outs that look alike come from different tables or passages of the source. Non-standard residues stand in square brackets, D forms with d. Residues, ends and D or L forms follow the SMILES beside them. No end group written: not given here. Tle = CC(C)(C)[C@H](N)C(=O)O; Dab = NCC[C@H](N)C(=O)O; Aib = CC(C)(N)C(=O)O

Legend:
[1] = test system: rat red blood cell suspensions; test: hemolysis risk test in rat whole blood; type: cell-based; details: for Hemolysis rate (%): Rat, 37 °C 1 h; for hemolysis rates: rat whole blood, concentration range of 1 to 50 µM
From the text: Hemolysis refers to the phenomenon in which the membrane of erythrocytes is destroyed, along with increased transparency and a dark red appearance. Certain pharmaceutical ingredients, excipients, etc. may contain hemolytic components, which may cause hemolysis in the human body and cause adverse reactions such as local swelling and blood circulation dysfunction. On the basis of the principle that the hemoglobin released from lysed red blood cells has absorption in the visible light wave band, test compound solutions were added to rat red blood cell suspensions, and after incubation, the degrees of hemolysis were determined using a microplate reader.
This test example assessed whether a polypeptide compound causes hemolytic reactions in rat, rabbit, and human whole blood.
Preparation of red blood cell suspension: 100 µL of fresh whole blood was collected, and 900 µL of 1× PBS solution was then added. The mixture was shaken on a plate shaker at 30 rpm for 5 min and then centrifuged at 1000 g for 5 min, and the supernatant was discarded. The above washing step was repeated until the supernatant no longer appeared red. The suspension was set aside for later use.
Preparation of test polypeptide solutions: An appropriate amount of 1× PBS solution was added to a powdered polypeptide, and the polypeptide was dissolved to form a standard stock solution. […] Meanwhile, blank 1× PBS was used as a negative control, and a 1× PBS solution containing 0.1% Triton X-100 was used as a positive control.
Incubation: A test solution (500 µL) was added to the red blood cell suspension, and then the mixture was well shaken on a plate shaker at 30 rpm for 5 min, incubated at 37 °C for 1 h, and centrifuged at 1000 g for 5 min.
100 µL of the supernatant was transferred to a single well of a microplate. The absorbance at 540 nm was measured using a SpectraMax M5 microplate reader, and data analysis was performed using GraphPad Prism 9. The hemolysis rate (%) was calculated using the formula: (test sample absorbance - negative control absorbance) / (positive control absorbance - negative control absorbance) × 100%. A rate of less than 5% indicates the absence of hemolysis, while a rate of greater than 5% indicates the presence of hemolysis. Table 3. Testing of the hemolysis risk of the polypeptide compound

[2] = pharmacokinetic study of different doses in rats; type: in vivo, SD rats; details: intravenous bolus injection; for AUC(0-t): blood to 180 min
Experimental: For example, at high doses, the agent causes symptoms such as tachycardia and blood pressure reduction due to excessive histamine release. Therefore, the pharmacokinetic profile of polypeptide compound 14 was assessed again using three doses: a high dose (3 nmol/g), a medium dose (1 nmol/g), and a low dose (0.3 nmol/g). […] Plasma concentration-time curves were plotted, and the pharmacokinetic parameters were calculated using WinNonlin software. Table 6. Intravenous bolus injection pharmacokinetic parameters in rats (different doses, n = 3)

[3] = SD, rat, plasma, 0.3 nmol/g, n = 3
[4] = SD, rat, plasma, 1 nmol/g, n = 3
[5] = SD, rat, plasma, 3 nmol/g, n = 3

CC(C)[C@H](NC(=O)[C@H](CC(=O)O)NC(=O)[C@@H](NC(=O)[C@@H](NC(=O)[C@@H](NC(=O)[C@@H](NC(=O)[C@H](CCN)NC(=O)C(C)(C)NC(=O)CNC(=O)[C@@H](CCCNC(=N)N)NC(=O)[C@@H](CCCNC(=N)N)NC(=O)[C@@H](CCCNC(=N)N)NC(=O)[C@@H](CCC(N)=O)NC(=O)[C@@H](CCCNC(=N)N)NC(=O)[C@@H](CCCNC(=N)N)NC(=O)[C@@H](CCCCN)NC(=O)[C@@H](CCCCN)NC(=O)[C@@H](CCCNC(=N)N)NC(=O)CNC(=O)[C@H](N)Cc1ccc(O)cc1)[C@@H](C)O)C(C)(C)C)C(C)(C)C)[C@@H](C)O)C(=O)O [Polypeptide compound 14, y-G-r-k-k-r-r-q-r-r-r-G-Aib-Dab-T-Tle-Tle-T-D-V] (H-[dY]G[dR][dK][dK][dR][dR][dQ][dR][dR][dR]G[Aib][Dab]T[Tle][Tle]TDV-OH)
Hemolysis rate (%) ([1]; 1.0 µM): 0.11% | Hemolysis rate (%) ([1]; 2.5 µM): 0.17% | Hemolysis rate (%) ([1]; 5.0 µM): -0.11% | Hemolysis rate (%) ([1]; 10 µM): 0.00% | Hemolysis rate (%) ([1]; 25 µM): -0.16% | Hemolysis rate (%) ([1]; 50 µM): 0.12% | hemolysis rates [1]: less than 5% | AUC(0-t) ([2]; SD, rat, plasma, 0.3 nmol/g, n = 3, read-out: AUC(0-t)): 1230 ng·h/mL | AUC(0-inf) [2, 3]: 1280 ng·h/mL | MRT [2, 3]: 0.856 h | half-life [2, 3]: 43.4 min | Cmax ([2]; SD, rat, plasma, 0.3 nmol/g, n = 3, read-out: Cmax): 1870 ng/mL | AUC(0-t) ([2]; SD, rat, plasma, 1 nmol/g, n = 3, read-out: AUC(0-t)): 5860 ng·h/mL | AUC(0-inf) [2, 4]: 6600 ng·h/mL | MRT [2, 4]: 1.31 h | half-life [2, 4]: 58 min | Cmax ([2]; SD, rat, plasma, 1 nmol/g, n = 3, read-out: Cmax): 5970 ng/mL | AUC(0-t) ([2]; SD, rat, plasma, 3 nmol/g, n = 3, read-out: AUC(0-t)): 15000 ng·h/mL | AUC(0-inf) [2, 5]: 17700 ng·h/mL | MRT [2, 5]: 1.47 h | half-life [2, 5]: 69.2 min | Cmax ([2]; SD, rat, plasma, 3 nmol/g, n = 3, read-out: Cmax): 18300 ng/mL

YGRKKRRQRRRKLSSIESDV [NA-1, YGRKKRRQR RRKLSSIESDV, reference compound]
Hemolysis rate (%) ([1]; 1.0 µM): -0.12% | Hemolysis rate (%) ([1]; 2.5 µM): 0.03% | Hemolysis rate (%) ([1]; 5.0 µM): 0.50% | Hemolysis rate (%) ([1]; 10 µM): 0.48% | Hemolysis rate (%) ([1]; 25 µM): 0.34% | Hemolysis rate (%) ([1]; 50 µM): -0.46% | hemolysis rates [1]: less than 5% | half-life ([2]; SD, rat, in vivo, 3 nmol/g, n = 3): 2.1 min | AUC(0-t) ([2]; 3 nmol/g, n = 3): 1149 ng·h/mL | AUC(inf) ([2]; 3 nmol/g, n = 3): 1154 ng·h/mL | Cmax ([2]; 3 nmol/g, n = 3): 7188 ng/mL | MRTO-inf ([2]; 3 nmol/g, n = 3): 7.5 min
